Test results taken from US20250057973A1, “Exosomes for treating glioblastoma multiforme and manufacturing method thereof” (China Medical University, priority 2023, published 2025).

Tests used:
GBM cell line U87 = assay: Cell death rate of GBM cells in the blood-brain barrier cell culture model; type: cell-based; conditions: U87, BBB model
Description: The blood-brain barrier cell culture model 10 includes a first culture area 11 and a second culture area 12, with multiple perforations 13 connecting the first culture area 11 and the second culture area 12. The first culture area 11 and the second culture area 12 are filled with a hydrogel A. The GBM cell line U87 is cultured in the hydrogel A of the first culture area 11, while endothelial cells 20, pericytes 30, and astrocytes 40 are sequentially arranged in the second culture area 12. Wherein the resistance value of the blood-brain barrier cell culture model 10 is set to 214462 Ω.cm^2 to establish an impedance environment of the blood-brain barrier. In subsequent experiments, the drug carrier is given to the second culture area 12 of the blood-brain barrier cell culture model 10, and experimental analysis is performed on the GBM cell line U87 in the first culture area 11 to confirm the efficacy and therapeutic effect of the drug carrier crossing from the second culture area 12 to the first culture area 11. […]

GBM cell line (U87) = assay: Animal model of glioblastoma multiforme (U87 implanted into mouse brain): body weight, survival, tumor growth; type: in vivo, mice
Description: To corroborate the actual effect of the drug carrier in living organisms, in a further experiment, 10^6 cells of the GBM cell line (U87) were implanted into the brains of mice to establish an animal model of glioblastoma multiforme. Seven days after the implantation surgery, the mice were administered the chemotherapy drug and/or drug carrier via intravenous injection, and imaging was used to confirm the growth status of the chemotherapy drug and/or drug carrier and the GBM cell line in the mouse brain. […]
FIGS. 10D and 10E further analyze the fluorescence expression (intensity (10^6)) of the GBM cell line in the brain area of the experimental mice in each group, and present the tissue morphology through hematoxylin-eosin staining (H&E staining) technique in the tissue section staining images to analyze the growth status of the GBM cells. […]

## Cn1nnc2c(C(N)=O)ncn2c1=O [TMZ, Temodal]
GBM cell line U87; 1st to 3rd day overall
  cell death rate (%) of the GBM cells: significant cell death rate
GBM cell line U87; by the third day
  cell death rate (%) of the GBM cells, third day: tended to moderate
GBM cell line (U87); U87 brain-implanted mice, intravenous injection
  survival rate of the experimental mice: increased
GBM cell line (U87); compared with Clt and αHLA-G EV groups
  growth of the GBM cell line in brain (fluorescence intensity): inhibited to some extent
